For series [1], the system named is MCF7. Kind of series: Induction of apoptosis in human MCF7 cells assessed as late apoptotic cells at 0.72 uM after 48 hrs by annexin V-FITC/propidium iodide staining based flow cytometric analysis (reference value: 0.14%). In kind it is functional. (In general: Flow cytometry measures light scatter and fluorescence of single cells or particles in a stream.)
Series [2] deals with MCF7. Kind of series: Induction of cell cycle arrest in human MCF7 cells assessed as accumulation of cells at S phase at IC50 concentration by Propidium iodide staining based flow cytometric analysis (reference value: 27.61%). In kind it is functional.
Series [3] has as its target T1, Phosphatidylinositol 4,5-bisphosphate 3-kinase catalytic subunit delta isoform (Homo sapiens, UniProt O00329).
T1 sequence (O00329 whole entry): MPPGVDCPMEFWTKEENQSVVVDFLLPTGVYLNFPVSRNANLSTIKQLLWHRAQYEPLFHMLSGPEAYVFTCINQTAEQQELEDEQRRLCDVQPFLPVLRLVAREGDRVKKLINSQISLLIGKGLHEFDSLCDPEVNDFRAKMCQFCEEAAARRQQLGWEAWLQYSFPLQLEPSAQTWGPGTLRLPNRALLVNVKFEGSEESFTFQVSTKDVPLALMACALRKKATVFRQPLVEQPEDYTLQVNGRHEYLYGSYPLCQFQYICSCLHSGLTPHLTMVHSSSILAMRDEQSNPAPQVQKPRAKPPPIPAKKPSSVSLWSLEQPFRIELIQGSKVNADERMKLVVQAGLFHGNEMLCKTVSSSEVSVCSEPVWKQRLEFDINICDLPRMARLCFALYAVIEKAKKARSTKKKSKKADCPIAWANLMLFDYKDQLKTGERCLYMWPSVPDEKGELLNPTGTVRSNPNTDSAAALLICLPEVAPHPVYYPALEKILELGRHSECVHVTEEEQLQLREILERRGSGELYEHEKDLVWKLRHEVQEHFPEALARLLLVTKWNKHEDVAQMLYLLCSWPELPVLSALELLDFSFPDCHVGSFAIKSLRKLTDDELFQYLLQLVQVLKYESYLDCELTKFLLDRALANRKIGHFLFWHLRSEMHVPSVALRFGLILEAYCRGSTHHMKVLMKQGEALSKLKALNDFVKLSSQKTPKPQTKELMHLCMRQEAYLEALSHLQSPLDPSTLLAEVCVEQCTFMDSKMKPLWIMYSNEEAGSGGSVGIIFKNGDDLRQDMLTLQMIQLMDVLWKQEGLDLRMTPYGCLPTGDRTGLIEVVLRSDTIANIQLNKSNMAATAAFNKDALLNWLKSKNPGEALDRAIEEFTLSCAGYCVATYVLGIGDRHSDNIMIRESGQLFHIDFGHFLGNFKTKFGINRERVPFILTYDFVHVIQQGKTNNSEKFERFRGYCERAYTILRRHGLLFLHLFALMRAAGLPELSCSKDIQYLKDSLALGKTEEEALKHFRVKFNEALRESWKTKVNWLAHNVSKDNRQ
Put plainly: Inhibition of PI3Kdelta (unknown origin) using PIP2 as substrate preincubated for 10 mins followed by substrate addition and measured after 1 hr by ELISA. (In general: In an ELISA, binding on a coated surface is turned into a signal by an enzyme label.)

Series [4] relates to MCF7. Put plainly: Induction of apoptosis in human MCF7 cells assessed as early apoptotic cells at 0.72 uM after 48 hrs by annexin V-FITC/propidium iodide staining based flow cytometric analysis (reference value: 0.36%). In kind it is functional.
Series [5] concerns the target Phosphatidylinositol 4,5-bisphosphate 3-kinase catalytic subunit beta isoform (Homo sapiens, UniProt P42338). Kind of series: Inhibition of PI3Kbeta (unknown origin) using PIP2 as substrate preincubated for 10 mins followed by substrate addition and measured after 1 hr by ELISA.
The subject of series [6] is MCF7. Put plainly: Induction of cell cycle arrest in human MCF7 cells assessed as accumulation of cells at G phase at IC50 concentration by Propidium iodide staining based flow cytometric analysis (reference value: 1.76%). In kind it is functional.
The subject of series [7] is MCF7. Kind of series: Induction of cell cycle arrest in human MCF7 cells assessed as accumulation of cells at G2/M phase at IC50 concentration by Propidium iodide staining based flow cytometric analysis (reference value: 10.94%). In kind it is functional.
The target in series [8] is Phosphatidylinositol 4,5-bisphosphate 3-kinase catalytic subunit alpha isoform (Homo sapiens, UniProt P42336). Put plainly: Inhibition of PI3Kalpha (unknown origin) using PIP2 as substrate preincubated for 10 mins followed by substrate addition and measured after 1 hr by ELISA.
The subject of series [9] is MCF7. Kind of series: Antiproliferative activity against human MCF7 cells assessed as inhibition of cell growth incubated for 48 hrs by MTT assay. In kind it is functional, cell-based. Conditions: MCF7, 48 h.
Series [10] relates to MCF7. Kind of series: Cytotoxicity against human MCF7 cells assessed as growth inhibition at 10 uM after 48 hrs by sulforhodamine B assay. Conditions: read-out: GI. In kind it is functional.
For series [11], the system named is MCF-10A. Kind of series: Cytotoxicity against human MCF10A cells assessed as inhibition of cell growth incubated for 48 hrs by MTT assay. In kind it is cell-based. (Tetrazolium assays rely on reduction of a dye to a coloured formazan, in cell work by metabolically active cells.)
Series [12] concerns MCF7. Put plainly: Induction of apoptosis in human MCF7 cells assessed as necrotic cells at 0.72 uM after 48 hrs by annexin V-FITC/propidium iodide staining based flow cytometric analysis (reference value: 1.26%). In kind it is functional.
The subject of series [13] is MCF7. Kind of series: Induction of cell cycle arrest in human MCF7 cells assessed as accumulation of cells at G1 phase at IC50 concentration by Propidium iodide staining based flow cytometric analysis (reference value: 61.45%). In kind it is functional.
The nature of series [14]: Selectivity index, ratio of IC50 for human MCF-10A cells to IC50 for human MCF7 cells. In kind it is toxicity. The conditions noted are these: MCF-10A cells versus MCF7 cells, read-out: Ratio IC50.

The source of these data is ChEMBL document CHEMBL5055672, “Design, Synthesis, Biological Evaluation, and Computational Studies of Novel Fluorinated Candidates as PI3K Inhibitors: Targeting Fluorophilic Binding Sites” (J Med Chem, 2021).

Structures are written as SMILES.

Phosphatidylinositol 4,5-bisphosphate 3-kinase catalytic subunit alpha isoform, sequence (P42336 whole entry, canonical isoform): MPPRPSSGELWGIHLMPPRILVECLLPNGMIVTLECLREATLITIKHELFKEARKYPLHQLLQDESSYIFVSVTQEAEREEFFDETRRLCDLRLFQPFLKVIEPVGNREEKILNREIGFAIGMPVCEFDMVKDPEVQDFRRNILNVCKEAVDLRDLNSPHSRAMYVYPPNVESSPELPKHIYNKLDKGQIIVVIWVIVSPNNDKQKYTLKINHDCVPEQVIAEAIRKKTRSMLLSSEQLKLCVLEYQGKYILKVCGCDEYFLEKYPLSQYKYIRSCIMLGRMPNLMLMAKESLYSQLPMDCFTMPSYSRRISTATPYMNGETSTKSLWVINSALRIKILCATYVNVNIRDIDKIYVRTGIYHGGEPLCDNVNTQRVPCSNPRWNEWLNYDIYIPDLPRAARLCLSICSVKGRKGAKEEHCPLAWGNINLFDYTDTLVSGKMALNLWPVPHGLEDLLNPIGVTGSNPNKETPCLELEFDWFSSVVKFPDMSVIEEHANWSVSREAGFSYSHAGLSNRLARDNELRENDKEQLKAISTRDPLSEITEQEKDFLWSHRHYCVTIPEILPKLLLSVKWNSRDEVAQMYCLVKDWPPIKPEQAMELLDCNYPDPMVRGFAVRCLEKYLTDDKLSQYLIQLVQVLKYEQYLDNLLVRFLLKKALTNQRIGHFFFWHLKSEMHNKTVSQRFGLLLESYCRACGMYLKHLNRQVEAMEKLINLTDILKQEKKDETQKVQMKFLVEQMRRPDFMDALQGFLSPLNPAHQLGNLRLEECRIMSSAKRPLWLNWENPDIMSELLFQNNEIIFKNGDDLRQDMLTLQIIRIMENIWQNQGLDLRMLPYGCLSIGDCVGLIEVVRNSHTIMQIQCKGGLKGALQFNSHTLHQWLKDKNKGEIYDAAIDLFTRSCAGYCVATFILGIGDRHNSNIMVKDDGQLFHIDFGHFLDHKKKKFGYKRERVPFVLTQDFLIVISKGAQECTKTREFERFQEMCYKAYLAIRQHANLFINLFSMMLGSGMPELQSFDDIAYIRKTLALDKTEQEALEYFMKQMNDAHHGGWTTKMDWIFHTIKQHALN
Phosphatidylinositol 4,5-bisphosphate 3-kinase catalytic subunit beta isoform, sequence (P42338 whole entry, canonical isoform): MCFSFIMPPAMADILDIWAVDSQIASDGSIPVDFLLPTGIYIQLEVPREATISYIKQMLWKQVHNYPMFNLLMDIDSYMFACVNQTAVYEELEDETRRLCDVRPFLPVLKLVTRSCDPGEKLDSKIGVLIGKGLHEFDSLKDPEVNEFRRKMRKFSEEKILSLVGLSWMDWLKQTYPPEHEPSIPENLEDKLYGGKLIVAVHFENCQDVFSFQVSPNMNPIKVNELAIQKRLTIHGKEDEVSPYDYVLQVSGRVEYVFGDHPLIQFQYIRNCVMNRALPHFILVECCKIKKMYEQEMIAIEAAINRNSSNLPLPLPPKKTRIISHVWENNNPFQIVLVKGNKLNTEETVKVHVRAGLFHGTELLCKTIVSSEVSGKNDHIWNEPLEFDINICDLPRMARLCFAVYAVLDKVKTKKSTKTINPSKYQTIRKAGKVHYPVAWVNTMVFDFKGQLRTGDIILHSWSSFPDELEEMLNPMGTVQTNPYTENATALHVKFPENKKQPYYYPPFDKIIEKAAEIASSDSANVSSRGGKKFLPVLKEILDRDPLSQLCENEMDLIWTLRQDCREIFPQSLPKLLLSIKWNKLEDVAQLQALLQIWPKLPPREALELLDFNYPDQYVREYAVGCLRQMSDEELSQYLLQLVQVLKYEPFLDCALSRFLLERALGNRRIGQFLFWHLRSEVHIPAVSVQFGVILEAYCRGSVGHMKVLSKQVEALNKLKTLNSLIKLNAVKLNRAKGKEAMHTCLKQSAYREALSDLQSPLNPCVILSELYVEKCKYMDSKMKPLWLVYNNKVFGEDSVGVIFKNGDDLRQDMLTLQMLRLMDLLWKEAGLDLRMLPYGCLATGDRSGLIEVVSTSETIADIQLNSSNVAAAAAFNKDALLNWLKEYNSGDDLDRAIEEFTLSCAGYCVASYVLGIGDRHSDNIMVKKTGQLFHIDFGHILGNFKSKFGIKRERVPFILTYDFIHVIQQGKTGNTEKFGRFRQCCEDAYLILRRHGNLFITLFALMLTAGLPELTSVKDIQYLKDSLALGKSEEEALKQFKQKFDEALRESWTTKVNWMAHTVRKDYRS

With `O=S(=O)(Oc1ccc(/C=N/N=c2\scc(-c3ccccc3)n2-c2ccccc2)cc1)C(F)(F)C(F)(F)C(F)(F)C(F)(F)F`, the Activity in series [1] was 21.88%; in series [2], 43.12%; in [4] it was 6.18%; in [6], 42.38%; in [7] it was 7.61%; in [12] it was 14.32%. Also, in series [13], the Activity is 49.27%. The IC50 (commonly the concentration needed to halve the response being measured) was found to be 7.9 µM in series [3]; 2.3 µM in series [5]; 5.8 µM in series [8]; 0.72 µM in [9]; 28.2 µM in [11]. Also, the inhibition of growth at 10 µM in series [10] turned out to be 65.5%. Besides, the selectivity ratio in [14] is 39.2.
